Test results published in publication PMC6881171, “A conserved ATP- and Scc2/4-dependent activity for cohesin in tethering DNA molecules” (Science Advances, 2019).

Target: T1, budding yeast cohesin tetramer (Smc1, Smc3, Scc1/Mcd1, Scc3) with Scc2-Scc4 loader complex (Saccharomyces cerevisiae, UniProt P32908+P47037)
T1 construct: tetramer overexpressed in S. cerevisiae W303-1a; Smc1-3xStrepII, Mcd1-8xHis-3xHA; loader Scc2-3xmyc-3xStrepII with Scc4; tags kept; with Sister chromatid cohesion protein 1; Cohesin subunit SCC3; Sister chromatid cohesion protein 2; MAU2 chromatid cohesion factor homolog
Experiment: [gamma-32P]ATP hydrolysis, thin-layer chromatography
Assay type: biochemical
Settings: 30 nM cohesin, 60 nM Scc2/4, 0.2 nM lambda-DNA, 400 uM ATP, 0.5 mM MgCl2, 20 mM NaCl, pH 7.0, 29 C; labelled compound

With `Nc1ncnc2c1ncn2[C@@H]1O[C@H](COP(=O)(O)OP(=O)(O)OP(=O)(O)O)[C@@H](O)[C@H]1O` [ATP] the “[gamma-32P]ATP hydrolysis, thin-layer chromatography” value was “our purified Scc2-Scc4 complex was able to stimulate cohesin ATPase activity”.
